Reference: US9155774B2, “Scaffold-kinase interaction blockades and uses thereof in treating cancer” (THE BOARD OF TRUSTEES OF THE LELAND STANFORD JUNIOR …, priority 2011, dated 2015)
Entries after “also recorded” stand apart in the source; their conditions may differ.

How the values were obtained:
[1] = system: normal human organotypic tissue expressing LacZ; experiment: Normal organotypic human tissue homeostasis; details: drug daily, same concentrations as in neoplastic tissue (UO126 5 μM)
Description: Human Tissue Model System. Dermis can be ordered from National Disease Research Interchange (NDRI) and New York Firefighter Skin Bank. Tissue is inspected for overall thickness as well as continuity across the spectrum. Pieces with less hair follicles are preferable. This tissue is cultures in a mixture of antibiotics and antimyotics for a period of 10-14 days. Subsequently, the epidermis is peeled off. The devitalized dermis is then ready to be repopulated with 2-4×10^5 neonatal human fibroblasts by low speed centrifugation for 1 hour. Tissue is raised to the air-liquid interface and seeded with 0.5-1×10^6 genetically modified human keratinocytes to stimulate differentiation and stratification (Ridky, T. W., et al. Invasive three-dimensional organotypic neoplasia from multiple normal human epithelia. Nat Med 16, 1450-1456 (2010); PrunieRAS, M., et al. Methods for cultivation of keratinocytes with an air-liquid interface. J Invest Dermatol 81, 28-33 (1983)). Tissue was treated with drug/peptide as indicated by application directly into culture media daily. Tissue was grown for five to ten days total. For immunofluorescence analysis, tissue was placed in OCT. For histological analysis, tissue was fixed in 10% formalin (Sigma-Aldrich) and embedded in paraffin.
Immunofluorescence and Invasion index. OCT embedded tissue samples were cut into 7 um sections then fixed and permeabilized by incubation in ice-cold methanol or acetone for 10 minutes at −20° C. followed by blocking in 10% horse serum in PBS for 1 hour. Tissue sections were then incubated with primary antibodies, followed by Alexafluor-488 conjugated or Alexafluor-555 conjugated, goat anti-mouse or goat anti-rabbit secondary antibodies (Molecular Probes). The following antibodies were used: rabbit anti-keratin-5 (1:4000, Covance, PRB-160P), mouse anti-collagen VII (1:200, Millipore, MAB2500), anti-mouse Keratin 10 (1:200, Neomarkers, MS611P), anti-mouse Transglutaminase (1:100, Biomedical Technology, BT-621), anti-rabbit Loricrin (1:200, Covance, PRB-145P), and anti-rabbit Ki67 (1:100, Neomarkers, SP6). Tissue was counterstained with Hoescht to visualize cell nuclei. Microscopy was performed on an Olympus FV1000 scanning laser confocal microscope. For each sample, 30 sequential Z-sections were taken in 3 channels (DAPI—405/450 nm excitation/emission, FITC-488/512 ex/em and TRITC-540/570 ex/em) allowing for subsequent three-dimensional reconstruction analysis. […] Relative invasion index was quantified as number of keratin-positive epithelial cells below the collagen-positive basement membrane zone (BMZ) measured 10 times across 3 independent 20× fields of view. Ki67 quantification was quantified as number of Ki67-positive epithelial cells measured 10 times across 3 independent 20× fields of view. […]

[2] = system: H-RAS^G12V/IκBαM organotypic human tissue; experiment: Organotypic human tissue model of RAS-driven neoplastic invasion; type: cell-based
Method: (§1) Retroviral Transduction. […] Alternatively transformation was achieved through combined infection with an LTR-driven retrovirus expressing oncogenic ER:H-RAS and a separate LTR-driven retrovirus expressing cyclin-dependent kinase 4 (CDK4). Polybrene was added to a final concentration of 5 ug/mL to cell media during infection. Infections were performed at 37° C. with low-speed centrifugation for 1 hour. Expression of these viral constructs was verified in vitro. […] As a control for a RAS-IκBα bicistronic virus (IIR), we also infected a separate pool of keratinocytes with a LacZ control virus. For dual ER:H-RAS and CDK4 infected cells, forty-eight hours after infection cultures were daily treated with either […] 40 hydroxytamoxifen or an equal volume of ethanol (vehicle).
(§2) Human Tissue Model System. […] Pieces with less hair follicles are preferable. […] Subsequently, the epidermis is peeled off. […] Tissue was grown for five to ten days total. For immunofluorescence analysis, tissue was placed in OCT.
(§3) Immunofluorescence and Invasion index. […] Tissue was counterstained with Hoescht to visualize cell nuclei.
Hum Gene Ther 8, 1659-1665 (1997)).

[3] = system: normal human organotypic tissue expressing LacZ
IQGAP1 = experiment: qRT-PCR validation of IQGAP1 knockdown; type: cell-based, human; details: two, four and six days post-nucleofection
Description: siRNA-mediated knockdown. For each ERK/MAPK scaffold, siRNA oligos were designed and synthesized by Dharmacon. Subsequently, 1×10^6 early-passage neonatal keratinocytes were electroporated with 2 nMol of each siRNA oligo or 1 nMol each of two siRNA oligos using Amaxa nucleofection reagents and according to the manufacturer's protocol. A nonfunctional siRNA served as a negative control and ERK1/2 siRNA served as positive controls. The following siRNA oligos were used for this study (sense/antisense):
shRNA-mediated knockdown. The vectors for pGIPZ shRNA targeting IQGAP1 were designed and purchased through Open Biosystems catalog number V2LHS-86779 for shIQGAP1.E, V2LHS-86781 for shIQGAP1.F, and V2LHS-259635 for shIQGAP1.G. Cells were transduced as above with 1000× puromycin (1 mg/mL) selection applied daily. Transduction of cells was visualized under a fluorescent microscope
qRT-PCR Expression Analysis. At indicated time points, RNA was harvested from cells via treatment with TRIZOL by the standard Invitrogen protocol. Relative mRNA expression was determined by qRT-PCR analysis using a Stratagene Mx3000P thermocycler and Brilliant II SYBR green QRT-PCR 1-step master mix reagents. Primer concentration was 200 nM with 100 ng RNA. Samples were run in triplicate and normalized to levels of GAPDH mRNA for each reaction. The following primers were used for this study: […]

ERK = experiment: Protein expression analysis of phosphorylated and total ERK (immunoblot / immunohistochemistry); type: cell-based, human; details: Ras-driven organotypic neoplasia, peptide 10 uM daily
Method: Protein Expression Analysis. Cells were lysed in 20 mM Tris (pH 7.5), 150 mM NaCl, 1 mM EDTA, and 1% NP40 supplemented with complete mini EDTA-free protease inhibitors (Roche) and phosphatase inhibitor cocktails I and II (Sigma-Aldrich). 5-20 ug of lysate were loaded per lane, subjected to 10-12% SDS-PAGE or 16% Tricine electrophoresus (Invitrogen NuPage), and subsequently transfer to PVDF membranes via semidry transfer. Primary antibody incubations were performed overnight at 4° C. Secondary antibody incubations were for 1 hour at room temperature. The following antibodies were used: rabbit anti-ERK1/2 (1:1000, Cell Signaling, 9201), rabbit anti-phosphorylated ERK1/2 (1:1000, Thr202/Tyr204, Cell Signaling, 9201), mouse anti-IQGAP1 (1:400, Upstate, 05-504), rabbit anti-RAS (1:500, Santa Cruz, sc-520), rabbit anti-IκBa (1:500, Cell Signaling, 9242), Rabbit anti-β-Galactosidase (1:1000, Cappel, 55976), rabbit anti myc (1:500, Abcam, ab9106), mouse anti-actin (1:10,000, Sigma, 5316), donkey anti-rabbit IgG conjugated to horseradish peroxidase (HRP)(1:20,000, Amersham Biosciences), and donkey anti-mouse IgG conjugated to horseradish peroxidase (HRP)(1:20,000, Amersham Biosciences).

[4] = system: Ras-driven organotypic human epidermal neoplasia; experiment: Ras-driven organotypic human epidermal neoplasia (ER:H-RAS/CDK4, 4OHT) invasion; type: cell-based; details: peptide 10 uM daily in media vs scrambled control peptide
Method: as §1, §2, §3
Exogenous delivery of the WW domain to human tissue. […] Briefly stromal primary human fibroblasts were seeded onto devitalized human dermis and subsequently elevated to a sterilized annular dermal support (ADS) tissue culture insert device (Ridky, supra). […]

[5] = system: PLX-4032 sensitive BRAFV600E melanoma cell lines (SK-MeI-28, A375, SK-MeI-5); experiment: Proliferation of PLX-4032 sensitive melanoma lines with peptide; type: cell-based, human; details: increasing doses of R8-myc-tagged WW peptide
Method: (A) Proliferation of PLX-4032 sensitive BRAFV600E melanoma cell lines (P1, SK-MeI-28; P2, A375; and P3, SK-MeI-5) at increasing doses of R8-myc-tagged WW peptide. (B) Proliferation assays of PLX-4032 resistant lines (R1, SK-MeI-28; R2, A375; and R3, SK-MeI-5) treated with 5 μM R8-myc-tagged SCR peptide and DMSO (control), 5 μM SCR peptide and 5 μM PLX-4032 (PLX-4032), or 5 μM R8-myc-tagged WW peptide and DMSO (5 μM WW).
Cell Viability Assay. Genetically modified adherent cancer cell lines were seeded in equivalent, low density cultures in duplicate to 24-well plates. 24 hours post-seeding, media was removed and replaced with 500 uL of a 5:1 mixture of cell media and cell titre blue reagent (Promega). Cultures were incubated with this mixture for 2 hours at 37° C. in the dark. Fluorescence ([…]) for 100 uL in triplicates of each sample was recorded. Incubation with cell titre blue reagent and fluorescent readings were repeated every two days for a total of twelve days. Values plotted correspond to readings taken while control samples are still growing exponentially.

[6] = system: PLX-4032 resistant BRAFV600E melanoma lines (SK-MeI-28, A375, SK-MeI-5); experiment: Proliferation of PLX-4032 resistant melanoma lines; type: cell-based, human; details: 5 μM R8-myc-tagged WW peptide and DMSO
[7] = system: IQGAP1-Erk1/2 interaction; experiment: Immunoprecipitation of endogenous IQGAP1 protein and associated Erk; type: cell-based, human; details: 10 μM peptide daily for six days, SK-MeI-28 cells
Method: (A) Immunoprecipitation of endogenous IQGAP1 protein and associated Erk from primary human cells (normal) or BRAFV600E mutant SK-MeI-28 melanoma cells (cancer) following daily treatment with 10 μM R8-myc-tagged SCR or WW peptide for six days. (B) Relative Erk levels as a function of immunoprecipitated IQGAP1 as in (d). n=3, ±SD.
Immunoprecipitation of endogenous IQGAP1 protein and associated Erk. Cells were cross-linked with 1 mL of 20 mM DSP (Thermo Scientific) for 1 hour at 4° C. and the reaction was stopped with washes in 50 mM Tris. Cells were lysed in 20 mM Tris, 150 mM NaCl, 0.2% NP40, 10% Glycerol with 0.5 mM dTT and protease/phosphatase inhibitors added directly before use (buffer 1) for 1 hour at 4° C., but not pelleted. 1 mg lysate in 500 uL was combined with 5 ug of mouse anti-IQGAP1 antibody (Millipore 05-504) in buffer 1 and rocked overnight at 4° C. 30 uL of protein G sepharose 4 fast flow (GE Healthcare) were washed in buffer 1 and combined with lysate for 1 hour at 4° C. Supernatent was removed to check for immunodepletion. Beads were washed 3 times in 20 mM Tris, 150 mM NaCl, 1% Triton X-100 with protease/phosphatase inhibitors added directly before use (buffer 2). Immunoprecipitate was eluted from beads in 200 uL of 4×LDS sample buffer in buffer 1 plus 5% BME. […]

[8] = system: SK-MeI-28 melanoma xenograft tumors; experiment: Systemic delivery of WW peptide in vivo by osmotic pump; details: subcutaneous osmotic pump, 19 mg/kg/day for 14 days
Method: (A) Established xenograft tumors derived from BRAFV600E mutant SK-MeI-28 melanoma cancer cells were subcutaneously implanted with osmotic pumps (Alzet model 2002) (indicated by black arrows) which released 19 mg/kg/day of R8-myc-tagged Scrambled or WW peptide for 14 days (indicated by hash bars) with tumor growth quantified by mean average radiance (n=3 mice per group). […] (D) Representative data of tumor growth as quantified by tumor volume±SEM from d28 and d43.
(§4) Systemic delivery of WW peptide in vivo. 0.5×10^6 luciferase-expressing SK-MeI-28 were injected into the subcutaneous space of hairless immunodeficient 6-8 week old SCID mice (SHO stock, Charles Rovers). Mouse xenografts were allowed to grow untreated for 1 week. Subsequently, tumors were measured and randomized two groups of similar tumor size. Each group was subcutaneously implanted with osmotic pumps (Alzet, model 2002) releasing 0.5 uL of R8-myc-tagged scrambled or WW peptide per hour for 14 days.
as §4, with “To test the efficacy of systemic” for “Systemic”, “vivo,” for “vivo.”, “of” for “of R8-myc-tagged”

[9] = siRNA-nucleofected keratinocytes
[10] = drug daily in culture media: UO126 5 μM, SB0203580 2.6 μM, PD98059 18.7 μM, LY294002 5 μM

N#CC(=C(/N)Sc1ccccc1N)/C(C#N)=C(/N)Sc1ccccc1N [UO126] was tested, and the normal tissue homeostasis [1] was “without affecting normal tissue homeostasis”.
“siIQGAP1.A: siRNA to coding sequence of IQGAP1, SEQ ID NO: 11/12 (chain 1 GAACGUGGCUUAUGAGUACUU; chain 2 GUACUCAUAAGCCACGUUCUU; chemistry not given here)” was tested, and the neoplastic invasion [2, 9] was “no invasion” and the normal tissue phenotype [3] was “phenotypically normal tissue”.
With “siIQGAP1.B: siRNA to 3′ UTR of IQGAP1, SEQ ID NO: 13/14 (chain 1 CCUCUCGCUCUGAUGGGACAUUUGU; chain 2 ACAAAUGUCCCAUCAGAGCGAGAGG; chemistry not given here)” the neoplastic invasion [2, 9] was “no invasion”, the “durability of IQGAP1 knockdown” value (IQGAP1) was “more durable knockdown” and the normal tissue phenotype [3] was “phenotypically normal tissue”.
For COc1cccc(-c2cc(=O)c3ccccc3o2)c1N [PD098059], the neoplastic invasion [2, 10] was “did not have an abrogating effect on neoplastic invasion; also recorded: did not block invasion”.
With “siIQGAP1.C: siRNA to 3′ UTR of IQGAP1, SEQ ID NO: 15/16 (chain 1 CAGCCAUCAUGACAUUUACCAUGAA; chain 2 UUCAUGGUAAAUGUCAUGAUGGCUG; chemistry not given here)” the neoplastic invasion [2, 9] was “no invasion”, the “durability of IQGAP1 knockdown” value (IQGAP1) was “more durable knockdown” and the normal tissue phenotype [3] was “phenotypically normal tissue”.
For “WW peptide: 32 amino acid IQGAP1 WW domain peptide, myc-tagged, made cell penetrating by adding eight arginine residues (RRRRRRRREQKLISEEDLDNNSKWVKHWVKGGYYYYHNLETQEGGWDEPP)”, the pErk1/2 levels (ERK) was “diminished pErk1/2 levels”, the BMZ degradation [4] was “abrogated BMZ degradation” and the neoplastic invasion [4] was “abolished neoplastic invasion; also recorded: inhibits neoplastic invasion”. For the same compound, the “proliferation of BRAF mutant melanoma cells” value [5] was “inhibited proliferation of BRAF mutant melanoma cells in a dose-dependent manner”, the “growth of PLX-4032-resistant melanoma cells” value [6] was “inhibited growth of PLX-4032-resistant melanoma cells similarly to PLX-4032-sensitive parental cells; also recorded: bypasses resistance to B-Raf inhibitors” and the “total Erk1/2 bound to endogenous IQGAP1” value [7] was “significantly decreased”. For the same compound, the “toxic effects to animals” value [8] was “without adverse toxic effects to animals”, the “weight gain of mice” value [8] was “no negative effects on mouse growth” and the “tumorigenesis / tumor growth” value ([8]; 19 mg/kg/day) was “diminishes tumorigenesis; also recorded: can inhibit tumorigenesis”.
With C[S+]([O-])c1ccc(-c2nc(-c3ccncc3)c(-c3ccc(F)cc3)[nH]2)cc1 (centres unmarked) [SB203580] the neoplastic invasion [2, 10] was “did not completely block invasion; also recorded: did not see effects”.
